Here are results for 16 compounds from patent US8299035B2, “10a-azalide compound having 4-membered ring structure” (Taisho Pharmaceutucal Co., Ltd., priority 2008, dated 2012).

Converted amounts (≈) assume the structure as drawn.

Common to all, as to assay: In vitro antibacterial activity, microbroth dilution method (CLSI method)
Common to all, as to format: cell-based

One experiment deals with S. pneumoniae ATCC 49619. To be noted: bacteria symbol C = S. pneumoniae ATCC 49619. The method, then: (§1) In vitro antibacterial activities of the compounds of the present invention against various test bacteria were measured according to the microbroth dilution method (CLSI method). The exemplary compounds shown in Table 9 and the comparative agent 1, clarithromycin, were used as test substances. The results are shown as MIC values (minimum inhibitory concentration, μg/ml) in Table 9. [table]

For another experiment, the system named is H. influenzae Rd. To be noted: bacteria symbol B = H. influenzae Rd. The procedure: as §1
For the next experiment, the system named is H. influenzae ATCC 43095. To be noted: bacteria symbol A = H. influenzae ATCC 43095. The method, then:
as §1

Experiment [1] relates to S. pneumoniae ATCC 700904. To be noted: bacteria symbol D = S. pneumoniae ATCC 700904. The procedure:
as §1

For the compound `CO[C@]1(C)C[C@H](O[C@H]2[C@H](C)[C@@H](O[C@@H]3O[C@H](C)C[C@H](N(C)C)[C@H]3O)[C@@](C)(OC)C[C@@H](C)[C@H](O)[C@H](C)N3CC(C3)OC(=O)[C@@H]2C)O[C@@H](C)[C@@H]1O` (mixture of isomers) [Example 1], the “MIC values (minimum inhibitory concentration)” value in the experiment on S. pneumoniae ATCC 49619 is 0.12 µg/mL; in the experiment on H. influenzae Rd, 1 µg/mL; in the experiment with H. influenzae ATCC 43095, 0.5 µg/mL; in experiment [1], greater than 128 µg/mL.
In the case of `CC[C@H]1OC(=O)[C@H](C)[C@@H](O[C@H]2C[C@@](C)(OC)[C@@H](O)[C@H](C)O2)[C@H](C)[C@@H](O[C@@H]2O[C@H](C)C[C@H](N(C)C)[C@H]2O)[C@](C)(OC)C[C@@H](C)C(=O)[C@H](C)[C@@H](O)[C@]1(C)O` [Comparative agent 1, clarithromycin, reference compound], the MIC in the experiment with S. pneumoniae ATCC 49619 (Streptococcus pneumoniae, ATCC49619, read-out: MIC values (minimum inhibitory concentration)) was 0.03 µg/mL (≈ 0.0401 µM); in the experiment on H. influenzae Rd (Haemophilus influenzae, read-out: MIC values (minimum inhibitory concentration)), 8 µg/mL (≈ 10.7 µM); in the experiment with H. influenzae ATCC 43095 (Haemophilus influenzae, ATCC43095, read-out: MIC values (minimum inhibitory concentration)) it was 4 µg/mL (≈ 5.35 µM); in experiment [1] (Streptococcus pneumoniae, ATCC700904, read-out: MIC values (minimum inhibitory concentration)), greater than 128 µg/mL.
As for `CCN(CCNC(=O)O[C@H]1[C@H](C)O[C@@H](O[C@H]2[C@H](C)[C@@H](O[C@@H]3O[C@H](C)C[C@H](N(C)C)[C@H]3O)[C@@](C)(OC)C[C@@H](C)[C@H](O)[C@H](C)N3CC(C3)OC(=O)[C@@H]2C)C[C@@]1(C)OC)[C@@H](C)c1ccccc1OC` [Example 2], the “MIC values (minimum inhibitory concentration)” value against S. pneumoniae ATCC 49619 came out at 0.06 µg/mL (≈ 0.064 µM); in the experiment with H. influenzae Rd, 8 µg/mL (≈ 8.54 µM); in the experiment with H. influenzae ATCC 43095, 4 µg/mL (≈ 4.27 µM); in experiment [1], 0.25 µg/mL (≈ 0.267 µM).
`CCN(CCNC[C@@]1(O)[C@H](C)O[C@@H](O[C@H]2[C@H](C)[C@@H](O[C@@H]3O[C@H](C)C[C@H](N(C)C)[C@H]3O)[C@@](C)(OC)C[C@@H](C)[C@H](O)[C@H](C)N3CC(C3)OC(=O)[C@@H]2C)C[C@@]1(C)OC)[C@@H](C)c1ccccc1OC` [Example 3]: the “MIC values (minimum inhibitory concentration)” value in the experiment on S. pneumoniae ATCC 49619 was determined as 0.03 µg/mL (≈ 0.0325 µM); in the experiment with H. influenzae Rd it was 4 µg/mL (≈ 4.33 µM); in the experiment on H. influenzae ATCC 43095 it was 4 µg/mL (≈ 4.33 µM); in experiment [1] it was 0.12 µg/mL (≈ 0.13 µM).
`CCN(CCNC[C@@]1(O)[C@H](C)O[C@@H](O[C@H]2[C@H](C)[C@@H](O[C@@H]3O[C@H](C)C[C@H](N(C)C)[C@H]3O)[C@@](C)(OC)C[C@@H](C)C(=O)[C@H](C)N3CC(C3)OC(=O)[C@@H]2C)C[C@@]1(C)OC)[C@@H](C)c1ccccc1OC` [Example 5]: the “MIC values (minimum inhibitory concentration)” value against S. pneumoniae ATCC 49619 was 0.03 µg/mL (≈ 0.0326 µM); in the experiment with H. influenzae Rd, 8 µg/mL (≈ 8.68 µM); with H. influenzae ATCC 43095 it was 4 µg/mL (≈ 4.34 µM); in experiment [1] it was 0.5 µg/mL (≈ 0.543 µM).
Take `CCN(CCNC(=O)O[C@H]1[C@H](C)O[C@@H](O[C@H]2[C@H](C)[C@@H](O[C@@H]3O[C@H](C)C[C@H](N(C)C)[C@H]3O)[C@@](C)(O)C[C@@H](C)[C@H](O)[C@H](C)N3CC(C3)OC(=O)[C@@H]2C)C[C@@]1(C)OC)[C@@H](C)c1ccccc1OC` [Example 12]: the “MIC values (minimum inhibitory concentration)” value amounted to 0.03 µg/mL (≈ 0.0325 µM) with S. pneumoniae ATCC 49619, 8 µg/mL (≈ 8.67 µM) against H. influenzae Rd, 8 µg/mL (≈ 8.67 µM) in the experiment on H. influenzae ATCC 43095 and 0.25 µg/mL (≈ 0.271 µM) in experiment [1].
On to `COC1(C)CC(C)C(O)C(C)N2CC(C2)OC(=O)C(C)C(OC2CC(C)(OC)C(O)(CNCCNC(C)(C)c3cccc4c3ccn4C)C(C)O2)C(C)C1OC1OC(C)CC(N(C)C)C1O` (stereo not shown) [Example 70], for which the “MIC values (minimum inhibitory concentration)” value was determined as 0.12 µg/mL (≈ 0.129 µM) with S. pneumoniae ATCC 49619, 4 µg/mL (≈ 4.29 µM) against H. influenzae Rd, 4 µg/mL (≈ 4.29 µM) with H. influenzae ATCC 43095 and 0.25 µg/mL (≈ 0.268 µM) in experiment [1].
In the case of `COc1ccccc1C(C)(C)N(C)CCN(C)CC1(O)C(C)OC(OC2C(C)C(=O)OC3CN(C3)C(C)C(O)C(C)CC(C)(OC)C(OC3OC(C)CC(N(C)C)C3O)C2C)CC1(C)OC` (stereo not shown) [Example 71], the “MIC values (minimum inhibitory concentration)” value amounted to 0.03 µg/mL (≈ 0.032 µM) in the experiment on S. pneumoniae ATCC 49619, 2 µg/mL (≈ 2.13 µM) in the experiment on H. influenzae Rd, 2 µg/mL (≈ 2.13 µM) in the experiment on H. influenzae ATCC 43095 and 0.12 µg/mL (≈ 0.128 µM) in experiment [1].
In the case of `CCN(CC(C)NCC1(O)C(C)OC(OC2C(C)C(=O)OC3CN(C3)C(C)C(O)C(C)CC(C)(OC)C(OC3OC(C)CC(N(C)C)C3O)C2C)CC1(C)OC)C(C)(C)c1ccccc1OC` (stereo not shown) [Example 84], the “MIC values (minimum inhibitory concentration)” value in the experiment on S. pneumoniae ATCC 49619 was 0.016 µg/mL (≈ 0.0168 µM); against H. influenzae Rd it was 4 µg/mL (≈ 4.2 µM); in the experiment with H. influenzae ATCC 43095, 4 µg/mL (≈ 4.2 µM); in experiment [1] it was 0.06 µg/mL (≈ 0.0631 µM).
On to `CCN(CC(CO)NCC1(O)C(C)OC(OC2C(C)C(=O)OC3CN(C3)C(C)C(O)C(C)CC(C)(OC)C(OC3OC(C)CC(N(C)C)C3O)C2C)CC1(C)OC)C(C)c1ccccc1OC` (stereo not shown) [Example 107], for which the “MIC values (minimum inhibitory concentration)” value against S. pneumoniae ATCC 49619 turned out to be 0.03 µg/mL (≈ 0.0315 µM); with H. influenzae Rd, 4 µg/mL (≈ 4.2 µM); in the experiment with H. influenzae ATCC 43095, 4 µg/mL (≈ 4.2 µM); in experiment [1], 0.06 µg/mL (≈ 0.0629 µM).
Turning to `COc1cccc2c1CN(CCN(C)CC1(O)C(C)OC(OC3C(C)C(=O)OC4CN(C4)C(C)C(O)C(C)CC(C)(OC)C(OC4OC(C)CC(N(C)C)C4O)C3C)CC1(C)OC)CC2` (stereo not shown) [Example 132], the “MIC values (minimum inhibitory concentration)” value is 0.06 µg/mL (≈ 0.0651 µM) in the experiment on S. pneumoniae ATCC 49619, 8 µg/mL (≈ 8.68 µM) in the experiment with H. influenzae Rd, 4 µg/mL (≈ 4.34 µM) with H. influenzae ATCC 43095 and 1 µg/mL (≈ 1.09 µM) in experiment [1].
`COc1cccc2c1CCCC2N(C)CCN(C)CC1(O)C(C)OC(OC2C(C)C(=O)OC3CN(C3)C(C)C(O)C(C)CC(C)(OC)C(OC3OC(C)CC(N(C)C)C3O)C2C)CC1(C)OC` (stereo not shown) [Example 133]: the “MIC values (minimum inhibitory concentration)” value in the experiment with S. pneumoniae ATCC 49619 was found to be 0.12 µg/mL (≈ 0.126 µM); in the experiment on H. influenzae Rd, 16 µg/mL (≈ 16.9 µM); against H. influenzae ATCC 43095, 8 µg/mL (≈ 8.43 µM); in experiment [1], 0.5 µg/mL (≈ 0.527 µM).
For `COc1ccccc1C(C)(C)N(C)CC1CN(CC2(O)C(C)OC(OC3C(C)C(=O)OC4CN(C4)C(C)C(O)C(C)CC(C)(OC)C(OC4OC(C)CC(N(C)C)C4O)C3C)CC2(C)OC)C1` (stereo not shown) [Example 162], the “MIC values (minimum inhibitory concentration)” value in the experiment on S. pneumoniae ATCC 49619 is 0.03 µg/mL (≈ 0.0316 µM); against H. influenzae Rd, 2 µg/mL (≈ 2.11 µM); in the experiment on H. influenzae ATCC 43095, 2 µg/mL (≈ 2.11 µM); in experiment [1] it was 0.12 µg/mL (≈ 0.126 µM).
`COC1(C)CC(C)C(O)C(C)N2CC(C2)OC(=O)C(C)C(OC2CC(C)(OC)C(O)(CN(C)CCN(C)C(C)c3ccccc3-c3ccccn3)C(C)O2)C(C)C1OC1OC(C)CC(N(C)C)C1O` (stereo not shown) [Example 195]: the “MIC values (minimum inhibitory concentration)” value in the experiment on S. pneumoniae ATCC 49619 worked out at 0.03 µg/mL (≈ 0.0309 µM); in the experiment on H. influenzae Rd it was 8 µg/mL (≈ 8.24 µM); against H. influenzae ATCC 43095, 4 µg/mL (≈ 4.12 µM); in experiment [1], 0.06 µg/mL (≈ 0.0618 µM).
In the same order, the values of `COc1ccccc1C(C)(C)N(C)Cc1cncn1CC1(O)C(C)OC(OC2C(C)C(=O)OC3CN(C3)C(C)C(O)C(C)CC(C)(OC)C(OC3OC(C)CC(N(C)C)C3O)C2C)CC1(C)OC` (stereo not shown) [Example 204] are 0.03 µg/mL (≈ 0.0312 µM), 16 µg/mL (≈ 16.7 µM), 16 µg/mL (≈ 16.7 µM) and 1 µg/mL (≈ 1.04 µM).
For the compound `COc1ncccc1C(C)(C)N(C)CCN(C)C[C@@]1(O)[C@H](C)O[C@@H](O[C@H]2[C@H](C)[C@@H](O[C@@H]3O[C@H](C)C[C@H](N(C)C)[C@H]3O)[C@@](C)(O)C[C@@H](C)[C@H](O)[C@H](C)N3CC(C3)OC(=O)[C@@H]2C)C[C@@]1(C)OC` [Example 221], the “MIC values (minimum inhibitory concentration)” value with S. pneumoniae ATCC 49619 was found to be 0.06 µg/mL (≈ 0.0649 µM); with H. influenzae Rd it was 8 µg/mL (≈ 8.66 µM); with H. influenzae ATCC 43095 it was 8 µg/mL (≈ 8.66 µM); in experiment [1] it was 1 µg/mL (≈ 1.08 µM).
